# Legend:
# [1] = molecular target: T1, VIM-2 (Escherichia coli, UniProt Q5U7L7); assay: β-lactamase inhibition assay (nitrocefin); assay type: biochemical; conditions: nitrocefin substrate; read-out: BLi, IC50 VIM-2
# T1 construct: VIM-2 (residues 27–266); made in house; host or cells: Escherichia coli
# Description: (§1) Recombinant AmpC, OXA-48 (residues 23–265) and VIM-2 (residues 27–266) were prepared from Escherichia coli based on previously established protocols. KPC-2 and NDM-1 are commercially available from LifeSpan Biosciences, Inc., Seattle, WA, USA (LS-G26598) and RayBiotech, Inc., Peachtree Corners, GA, USA (230-00554), respectively. For β-lactamase inhibition assay, in a 96-well plate, 70–0.1 μM (in PBS) of the synthesized compounds (1~14) (100 μL) were mixed with diluted β-lactamase stock (2% DMSO in 200 μL). In a separate 96-well plate, a substrate of AmpC, KPC-2, OXA-48, and VIM-2 (nitrocefin) and NDM-1 (imipenem) were added into each well (final concentrations of 70 μM for nitrocefin and 100 μM for imipenem). After incubation at 37 °C for 20 min, the mixture of the synthesized compounds (1~14) and β-lactamase in one plate was added to the substrate in the other plate. Enzymatic hydrolysis of the substrate was then monitored by a Cytation 5 imaging multimode reader (BioTek Instruments Inc., Winooski, VT, USA) at 486 nm and 300 nm for nitrocefin and imipenem, respectively, for 15 min. The rates of hydrolysis in the presence of the inhibitors were determined when the reaction rate plateaued. Comparison of the enzymatic hydrolysis rates in the presence and the absence of inhibitors (100%) provided the percentage of enzyme inhibition at each concentration of the synthesized compounds. The IC50 values were obtained after non-linear regression (sigmoidal dose-responses) by GraphPad Prism 5 (GraphPad Software, Boston, MA, USA).
# [2] = molecular target: T2, KPC-2 (Klebsiella pneumoniae, UniProt Q9F663); assay: β-lactamase inhibition assay (nitrocefin); assay type: biochemical; conditions: nitrocefin substrate; read-out: BLi, IC50 KPC-2
# T2 construct: purchased LifeSpan Biosciences, Inc. LS-G26598
# Description: as §1
# [3] = molecular target: AmpC; assay: β-lactamase inhibition assay (nitrocefin); assay type: biochemical; conditions: nitrocefin substrate; read-out: BLi, IC50 AmpC
# Description: as §1
# [4] = molecular target: T3, OXA-48 (Klebsiella pneumoniae, UniProt Q6XEC0); assay: β-lactamase inhibition assay (nitrocefin); assay type: biochemical; conditions: nitrocefin substrate; read-out: BLi, IC50 OXA-48
# T3 construct: OXA-48 (residues 23–265); made in house; host or cells: Escherichia coli
# Description: as §1
# [5] = molecular target: T4, NDM-1 (Klebsiella pneumoniae, UniProt C7C422); assay: β-lactamase inhibition assay (imipenem); assay type: biochemical; conditions: imipenem substrate; read-out: BLi, IC50 NDM-1
# T4 construct: purchased RayBiotech, Inc. 230-00554
# Description: as §1
# [6] = tested on: NDM-1-Producing P. aeruginosa (PA-017, blaNDM); assay: MIC / checkerboard with ATM; assay type: cell-based; set-up: key to Susceptibility category: S: susceptible; I: intermediate; R: resistant; conditions: PA-017; for MIC: Pseudomonas aeruginosa, compound alone, read-out: MIC, Cmpd
# [7] = tested on: efflux pump activity in P. aeruginosa (PA-017, blaNDM); assay: EtBr accumulation, inhibition of efflux pump activity; assay type: cell-based; conditions: EtBr fluorescence compared with positive control CCCP
# Description: The NDM-producing P. aeruginosa clinical isolate (PA-017, blaNDM) (5 mL, LB medium) was grown to reach the mid-log phase. After centrifugation at 3500 rpm for 15 min, the bacterial pellet was washed twice with PBS and resuspended to OD600 = 0.3 in PBS. To each well of a flat-bottomed black 96-well plate, 182 µL of the bacterial suspension, 4 µL of glucose [final concentration = 0.4% (w/v)], 4 µL of the synthesized compounds or positive control CCCP, and 10 µL of EtBr (final concentration = 1 µg/mL) were added. The plate was incubated at 37 °C, and fluorescence emission from EtBr (λex 480 nm/λem 630 nm) was recorded every 2 min (for 60 min) using a Cytation 5 imaging multi-mode reader (BioTek Instruments, Inc., Winooski, VT, USA).
# [8] = tested on: PA-039, blaNDM; assay: MIC / checkerboard with ATM; assay type: cell-based, P. aeruginosa; set-up: key to Susceptibility category: S: susceptible; I: intermediate; R: resistant; conditions: PA-039; Table S2
# [9] = tested on: PA-002, blaIMP; assay: MIC / checkerboard with ATM; assay type: cell-based, P. aeruginosa; set-up: key to Susceptibility category: S: susceptible; I: intermediate; R: resistant; conditions: PA-002, Table S2
# [10] = tested on: PA-042, blaIMP/NDM; assay: MIC / checkerboard with ATM; assay type: cell-based, P. aeruginosa; set-up: key to Susceptibility category: S: susceptible; I: intermediate; R: resistant; conditions: PA-042; Table S2
# [11] = tested on: PA-003, blaVIM; assay: MIC / checkerboard with ATM; assay type: cell-based, P. aeruginosa; set-up: key to Susceptibility category: S: susceptible; I: intermediate; R: resistant; conditions: PA-003, Table S2
# [12] = tested on: PA-025, blaNDM; assay: MIC / checkerboard with ATM; assay type: cell-based, P. aeruginosa; set-up: key to Susceptibility category: S: susceptible; I: intermediate; R: resistant; conditions: PA-025; Table S2
# [13] = tested on: PA-038, blaNDM; assay: MIC / checkerboard with ATM; assay type: cell-based, P. aeruginosa; set-up: key to Susceptibility category: S: susceptible; I: intermediate; R: resistant; conditions: PA-038; Table S2
# [14] = tested on: PA-030, blaIMP; assay: MIC / checkerboard with ATM; assay type: cell-based, P. aeruginosa; set-up: key to Susceptibility category: S: susceptible; I: intermediate; R: resistant; conditions: PA-030; Table S2
# [15] = tested on: PA-037, blaIMP/NDM; assay: MIC / checkerboard with ATM; assay type: cell-based, P. aeruginosa; set-up: key to Susceptibility category: S: susceptible; I: intermediate; R: resistant; conditions: PA-037; Table S2
# [16] = tested on: PA-029, blaIMP; assay: MIC / checkerboard with ATM; assay type: cell-based, P. aeruginosa; set-up: key to Susceptibility category: S: susceptible; I: intermediate; R: resistant; conditions: PA-029; Table S2
# [17] = tested on: PA-028, blaNDM; assay: MIC / checkerboard with ATM; assay type: cell-based, P. aeruginosa; set-up: key to Susceptibility category: S: susceptible; I: intermediate; R: resistant; conditions: PA-028; Table S2
# [18] = tested on: PA-027, blaIMP; assay: MIC / checkerboard with ATM; assay type: cell-based, P. aeruginosa; set-up: key to Susceptibility category: S: susceptible; I: intermediate; R: resistant; conditions: PA-027; Table S2
# [19] = tested on: PA-034, blaNDM; assay: MIC / checkerboard with ATM; assay type: cell-based, P. aeruginosa; set-up: key to Susceptibility category: S: susceptible; I: intermediate; R: resistant; conditions: PA-034; Table S2
# [20] = tested on: PA-032, blaIMP; assay: MIC / checkerboard with ATM; assay type: cell-based, P. aeruginosa; set-up: key to Susceptibility category: S: susceptible; I: intermediate; R: resistant; conditions: PA-032, Table S2
# [21] = tested on: PA-044, blaNDM; assay: MIC / checkerboard with ATM; assay type: cell-based, P. aeruginosa; set-up: key to Susceptibility category: S: susceptible; I: intermediate; R: resistant; conditions: PA-044; Table S2
# [22] = tested on: PA-036, blaNDM; assay: MIC / checkerboard with ATM; assay type: cell-based, P. aeruginosa; set-up: key to Susceptibility category: S: susceptible; I: intermediate; R: resistant; conditions: PA-036; Table S2
# [23] = tested on: PA-014, blaGES; assay: MIC / checkerboard with ATM; assay type: cell-based, P. aeruginosa; set-up: key to Susceptibility category: S: susceptible; I: intermediate; R: resistant; conditions: PA-014; Table S2
# [24] = tested on: PA-009, blaGES; assay: MIC / checkerboard with ATM; assay type: cell-based, P. aeruginosa; set-up: key to Susceptibility category: S: susceptible; I: intermediate; R: resistant; conditions: PA-009; Table S2
# [25] = tested on: PA-033, blaNDM; assay: MIC / checkerboard with ATM; assay type: cell-based, P. aeruginosa; set-up: key to Susceptibility category: S: susceptible; I: intermediate; R: resistant; conditions: PA-033; Table S2
# [26] = tested on: PA-035, blaGES; assay: MIC / checkerboard with ATM; assay type: cell-based, P. aeruginosa; set-up: key to Susceptibility category: S: susceptible; I: intermediate; R: resistant; conditions: PA-035, Table S2
# [27] = tested on: PA-040, blaNDM; assay: MIC / checkerboard with ATM; assay type: cell-based, P. aeruginosa; set-up: key to Susceptibility category: S: susceptible; I: intermediate; R: resistant; conditions: PA-040; Table S2
# [28] = tested on: PA-041, blaNDM; assay: MIC / checkerboard with ATM; assay type: cell-based, P. aeruginosa; set-up: key to Susceptibility category: S: susceptible; I: intermediate; R: resistant; conditions: PA-041; Table S2
# [29] = tested on: PA-021, blaIMP; assay: MIC / checkerboard with ATM; assay type: cell-based, P. aeruginosa; set-up: key to Susceptibility category: S: susceptible; I: intermediate; R: resistant; conditions: PA-021; Table S2
# [30] = tested on: PA-016, blaIMP; assay: MIC / checkerboard with ATM; assay type: cell-based, P. aeruginosa; set-up: key to Susceptibility category: S: susceptible; I: intermediate; R: resistant; conditions: PA-016; Table S2
# [31] = tested on: PA-031, blaNDM; assay: MIC / checkerboard with ATM; assay type: cell-based, P. aeruginosa; set-up: key to Susceptibility category: S: susceptible; I: intermediate; R: resistant; conditions: PA-031; Table S2
# [32] = tested on: PA-026, blaNDM; assay: MIC / checkerboard with ATM; assay type: cell-based, P. aeruginosa; set-up: key to Susceptibility category: S: susceptible; I: intermediate; R: resistant; conditions: PA-026, Table S2
# [33] = Pseudomonas aeruginosa, read-out: MIC value
# T3 sequence (Q6XEC0 23-265 limits assumed): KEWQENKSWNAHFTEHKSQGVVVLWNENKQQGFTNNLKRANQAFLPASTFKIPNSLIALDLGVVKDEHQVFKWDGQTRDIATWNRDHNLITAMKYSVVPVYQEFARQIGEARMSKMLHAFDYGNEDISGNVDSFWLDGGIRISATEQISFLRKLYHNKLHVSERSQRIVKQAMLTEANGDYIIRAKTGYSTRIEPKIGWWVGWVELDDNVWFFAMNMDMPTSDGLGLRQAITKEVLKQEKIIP
# T4 sequence (C7C422 29-270, looked up, species assumed): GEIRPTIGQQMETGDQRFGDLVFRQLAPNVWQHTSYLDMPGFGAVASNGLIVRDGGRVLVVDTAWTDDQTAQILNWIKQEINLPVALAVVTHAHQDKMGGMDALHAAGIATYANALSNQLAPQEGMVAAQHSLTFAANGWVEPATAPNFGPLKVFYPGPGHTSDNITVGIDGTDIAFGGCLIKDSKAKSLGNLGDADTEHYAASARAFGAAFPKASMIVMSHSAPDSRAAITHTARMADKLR
# T2 sequence (Q9F663 25-293, looked up, species assumed): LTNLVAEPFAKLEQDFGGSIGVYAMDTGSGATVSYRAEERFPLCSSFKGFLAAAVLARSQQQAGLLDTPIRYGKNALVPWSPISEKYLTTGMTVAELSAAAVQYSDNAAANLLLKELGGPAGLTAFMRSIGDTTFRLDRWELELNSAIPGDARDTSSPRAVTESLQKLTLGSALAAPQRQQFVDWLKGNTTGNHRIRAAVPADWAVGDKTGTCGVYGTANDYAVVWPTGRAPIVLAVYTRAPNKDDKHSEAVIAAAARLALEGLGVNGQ
smiles,measurement,setting,value
"O=C(O)COc1cc(O)c2c(=O)c(OCCC3CCCC3)c(-c3ccc(F)c(F)c3)oc2c1 [Compound 6, 2-((3-(2-Cyclopentylethoxy)-2-(3,4-difluorophenyl)-5-hydroxy-4-oxo-4H-chromen-7-yl)oxy)acetic Acid]",IC50,[1],37.3 ± 0.6 µM
same,IC50,[2],> 50 µM
same,IC50,[3],> 50 µM
same,IC50,[4],> 100 µM
same,IC50,[5],16.1 ± 1.1 µM
same,FD (fold decrease in the MIC of ATM upon combination with the compound),[6],4
same,MIC,[6],> 256 µg/mL
same,EPi (inhibition of efflux pump activity),[7],↑ ^g
"O=C(O)COc1cc(O)c2c(=O)c(OCCC3CCCCC3)c(-c3ccc(F)c(F)c3)oc2c1 [Compound 7, 2-((3-(2-Cyclohexylethoxy)-2-(3,4-difluorophenyl)-5-hydroxy-4-oxo-4H-chromen-7-yl)oxy)acetic Acid]",IC50,[1],21 ± 1.3 µM
same,IC50,[2],> 50 µM
same,IC50,[3],> 50 µM
same,IC50,[4],> 100 µM
same,IC50,[5],14.7 ± 1.6 µM
same,FD (fold decrease in the MIC of ATM upon combination with the compound),[6],4
same,MIC,[6],> 256 µg/mL
same,EPi (inhibition of efflux pump activity),[7],↑ ^g
"C[C@@H](O)[C@H]1C(=O)N2C(C(=O)O)=C(S[C@@H]3CN[C@H](C(=O)N(C)C)C3)[C@H](C)[C@H]12 [MEM, meropenem, reference compound]",Susceptibility category,[8],R
same,Susceptibility category,[9],R
same,MIC,[9]; [33],> 32 µg/mL
same,Susceptibility category,[10],R
same,Susceptibility category,[11],R
same,MIC,[11]; [33],16 µg/mL
same,Susceptibility category,[12],R
same,Susceptibility category,[13],R
same,Susceptibility category,[14],R
same,Susceptibility category,[15],R
same,Susceptibility category,[6]; Table S2,R
same,Susceptibility category,[16],R
same,Susceptibility category,[17],R
same,Susceptibility category,[18],R
same,Susceptibility category,[19],R
same,Susceptibility category,[20],R
same,MIC,[20]; [33],32 µg/mL
same,Susceptibility category,[21],R
same,Susceptibility category,[22],R
same,Susceptibility category,[23],R
same,Susceptibility category,[24],R
same,Susceptibility category,[25],R
same,Susceptibility category,[26],R
same,MIC,[26]; [33],16 µg/mL
same,Susceptibility category,[27],R
same,Susceptibility category,[28],R
same,Susceptibility category,[29],R
same,Susceptibility category,[30],R
same,Susceptibility category,[31],R
same,Susceptibility category,[32],S
same,MIC,[32]; [33],≤ 0.25 µg/mL

# From PMC11672637, “7-O-Carboxylic Acid-Substituted 3-O-Alkyl Difluoroquercetin; An Aztreonam-Potentiating Agent Against Carbapenemase-Producing Pseudomonas aeruginosa Through Simultaneous Inhibition of Metallo-β-Lactamase and Efflux Pump” (Antibiotics, 2024)
